Data from patent US7894880B2, “Measurement of renal extraction fraction using contrast enhanced computed tomography” (The Board of Trustees of the Leland Stanford Junior …, priority 2003, dated 2011).
Several values for one entry are separate records, joined by “and”; a condition that tells them apart may be missing. Equal values may be shown once.

Assay: Renal extraction fraction by contrast enhanced CT after iohexol injection (retrospective study)
Type: in vivo, adult patients
Excerpt: [formula] where CA is the concentration of a filtration marker in the systemic arterial blood entering the kidney, and CV is the corresponding concentration in the renal venous blood. Standard radiographic contrast agents, including iothalamate and iohexol, may be used as filtration markers since they are freely filtered by the kidney, and neither secreted nor reabsorbed. Assuming linear increase in CT number with concentration of contrast agent, CA will be proportional to the increase in CT number of the systemic arterial blood following contrast injection, or CTA-CTPRE, where CTPRE and CTA are the pre- and post- contrast CT numbers of the systemic arterial blood. Similarly, CTV will be proportional to CTV-CTPRE, where CTV is the post-contrast CT number of a renal vein. Substituting into equation [1] yields: […]
In a retrospective study, CT scans of 10 adult patients (mean age 58.1 years, 7 female) having no known renal disease, and one patient with unilateral renal obstruction were studied. All patients had precontrast scans followed by injection of 120 ml. of iohexol (Omnipaque 350, Amersham Health, Princeton, N.J.) at 2 ml/sec., and enhanced scans through the kidney vasculature, delayed for 3 to 5 minutes after the end of the contrast injection. CT section thickness varied from 2.5 mm to 5 mm. Pre- and post-contrast delayed images were evaluated using ROI measurements taken within the abdominal aorta in the region of the renal vessels, and within right and left renal veins. Multiple measurements, one from each of several axial scans, within each vessel were obtained, varying from 2 to 4 measurements for each renal vein, and 4-8 measurements for the abdominal aorta. Mean CT number values were subsequently computed for each vessel. EF values for the right and left kidneys in each subject were then computed for each patient using equation [2] above. Propagation of error was used to estimate the standard deviation in the computed EF values, as expressed in:
[formula] where σ^2CTA, σ^2CTV, and σ^2CTPRE are the variances in the mean values for each region.

[1] = 10 patients with no history of renal disease, weighted by the inverse of the variance
[2] = individual normal subjects (no known renal disease), one line per patient, 120 ml iohexol at 2 ml/sec, scans delayed 3 to 5 minutes after injection
[3] = patient with unilateral renal obstruction

Left renal EF, weighted mean ± SD [1]: 12.3±1.3% | Right renal EF, weighted mean ± SD [1]: 12.6±1.0% | EF in the obstructed left kidney [3]: 9.7±4.0% | EF in the unobstructed right kidney [3]: 29.6±5.6%
SMILES: CC(=O)N(CC(O)CO)c1c(I)c(C(=O)NCC(O)CO)c(I)c(C(=O)NCC(O)CO)c1I (stereo not drawn) [iohexol]
Left Renal EF (calculated extraction fraction ± s.d.) [2]: 7.7 ± 6.3% and 9.1 ± 1.5% and 7.8 ± 2.6% and 21.1 ± 1.7% and 22.2 ± 3.0% and 8.3 ± 1.9% and 17.7 ± 4.7% and 8 ± 3.2% and 7.7 ± 3.1% and 7.7 ± 5.3% | Right Renal EF (calculated extraction fraction ± s.d.) [2]: 8.3 ± 9.6% and 16.2 ± 11.6% and 7.6 ± 1.6% and 16.8 ± 3.4% and 16.7 ± 2.2% and 8 ± 5.4% and 16.2 ± 4.6% and 10.6 ± 4.5% and 18.8 ± 2.8% and 13.3 ± 3.1%
